The results in this text go back to US7919496B2, “Heterocyclic derivatives for the treatment of diseases mediated by stearoyl-CoA desaturase enzymes” (Xenon Pharmaceuticals Inc., priority 2004, dated 2011).

By melting point is commonly meant the temperature, or range, at which the solid turns liquid. For the molecule `CCCCCNC(=O)c1cc(N2CCN(C(=O)c3ccccc3C(F)(F)F)CC2)nn1C(=O)OCc1ccccc1` [Example 6, 5-PENTYLCARBAMOYL-3-[4-(2-TRIFLUOROMETHYLBENZOYL)PIPERAZIN-1-YL]PYRAZOLE-1-CARBOXYLIC ACID BENZYL ESTER], the melting point was 58 to 61 °C.
As to `CCCCCNC(=O)c1cnc(N2CCN(C(=O)c3ccccc3C(F)(F)F)CC2)s1` [Example 7, 2-[4-(2-TRIFLUOROMETHYLBENZOYL)PIPERAZIN-1-YL]-THIAZOLE-5-CARBOXYLIC ACID PENTYLAMIDE], the melting point lay in the range of 92 to 94 °C.
